# Results from patent publication US9066912B2, “Drug-enhanced adhesion prevention” (Ethicon, Inc., priority 2003, dated 2015).
# Values joined by “and” are separate entries in the source; they are usually repeats but may differ in a detail not shown here. Equal entries are not always repeated. “Also recorded” adds a separate entry of the source.
# Experiments:
# [1] = test system: adhesion formation after peritoneal surgery (sidewall injury); experiment: Rabbit peritoneal sidewall adhesion model; assay type: in vivo; set-up: key to Adhesion Tenacity: 0: No adhesions; 1: mild, easily dissectible adhesions; 2: moderate adhesions; non-dissectible, does not tear organ; 3: dense adhesions; non-dissectible, tears when removed; conditions: for mean adhesion area percentage: placebo control 100±0; for Adhesion Area Percentage / Adhesion Tenacity: individual animals; for efficacy in reducing post-operative adhesions: summary of the examples
# Protocol: Multiple studies to confirm the efficacy of Tranilast in the reduction or inhibition of adhesion formation after peritoneal surgery were performed using a sidewall adhesion model.
# (§1) In the peritoneal sidewall model, rabbits were pre-anesthetized with 1.2 mg/kg acetylpromazine and anesthetized with a mixture of 55 mg/kg ketamine hydrochloride and 5 mg/kg xylazine intramuscularly. Following preparation for sterile surgery, a midline laparotomy was performed. A 3 cm×5 cm area of peritoneum and transversus abdominis muscle was removed on the right lateral abdominal wall. The cecum was exteriorized and digital pressure was exerted to create subserosal hemorrhages (trauma and loss of blood flow) over all cecal surfaces. The cecum was then returned to its normal anatomic position. Tranilast contained in a delivery vehicle as described below was placed in an Alzet® miniosmotic pump (Alza Corporation, Palo Alto, Calif.) to allow continuous release of the molecule through the postsurgical interval. The Alzet miniosmotic pump was placed in the subcutaneous space and a delivery tube connected the pump with the site of injury at the sidewall. Only the delivery vehicle was placed in the pump of control rabbits. The abdominal wall and skin were closed in a standardized manner.
# After 21 days, the rabbits were sacrificed and the percentage of the area of the sidewall injury that was involved in adhesions was determined. In addition, the tenacity of the adhesion formed was scored using a system as follows:
# With the sidewall model, an initial score to represent the overall extent of adhesions is given (0 to 3).
# The percentage of a surface of the sidewall involved in adhesions to various organs are given in the tables below to quantify the overall adhesion score. A reduction in the area and the tenacity of the adhesions would be considered beneficial and efficacious.
# The efficacy of Tranilast in inhibiting adhesion formation was evaluated using a single pump, filled with one of three dosage levels of mg of Tranilast per ml of delivery vehicle (0.625 mg/ml, 6.25 mg/ml or 62.5 mg/ml), or placebo control (70% Polyethylene glycol 400, 20% Tween 80, 10% N,N-dimethylacetamide (DMAC)). The drug was placed in an Alzet miniosmotic pump and delivered over 7 days at a rate of 10 microliter/hr. The animals were sacrificed after 21 days.
# Following the procedure described in Example 1, Tranilast, at one of three dosage levels (0.625, 6.25 or 62.5 mg Tranilast/ml vehicle), and a placebo control (70% Polyethylene glycol 400, 20% Tween 80, 10% N,N-dimethylacetamide (DMAC)) was delivered over 7 days at a rate of 10 microliter/hr.
# After 7 days, animals received anesthesia and a small incision was made in the skin after preparation for aseptic surgery. The pump was then replaced with a new pump and drug or placebo was delivered over a second period of 7 days at a rate of 10 microliter/hr.
# After 7 more days, some of the animals received anesthesia and a second small incision was made in the skin after preparation for aseptic surgery. Again, the pump was replaced with another new pump and drug or placebo was delivered over a third period of 7 days at a rate of 10 microliter/hr.
# All animals were sacrificed after 21 days.
# Groups of animals received either oral dosing, or local delivery of Tranilast, or placebo control. In the animals that received local delivery, a single pump, filled with placebo (70% Polyethylene glycol 400, 20% Tween 80, 10% N,N-dimethylacetamide (DMAC)), or Tranilast (6.25 mg/ml), at 10 microliter/hour over 7 days starting with the day of surgery, was placed in the subcutaneous space. Certain animals received oral dosing (approximately 60 mg/kg). Oral dosing was either pre-operatively (once a day for the 5 days prior to surgery, with the last dose given 2 hours prior to surgery) or, in one group, pre- and post-operatively (from day 2 through day 21 post-surgery). For further clarification, the treatment groups are shown below.
# [2] = Necropsy observations in the rabbit sidewall adhesion studies; assay type: in vivo; set-up: key to mild inflammation with granulomas (mark at adhesion tenacity): *: did have mild inflammation with the presence of granulomas; conditions: for mild inflammation with granulomas (mark at adhesion tenacity): individual animals, also seen in vehicle treated animals
# Protocol: as §1
# The animals whose adhesion tenacities are marked by (*) did have mild inflammation with the presence of granulomas. The variability in the results may be due to a localized inflammation in […]. As the response was present in the vehicle treated animals, the inflammatory response may be due to prolonged administration of this vehicle. Therefore, the efficacy results might have been underestimated in light of the possible presence of a prolonged inflammatory response.
# [3] = test system: TGF-β secretion, collagen synthesis, or cellular proliferation; conditions: any of the cellular assays tested to date, e.g. TGF-β secretion; cited from earlier work
# [4] = Example 1, 0.625 mg/ml local via pump, 10 microliter/hr over 7 days, sacrifice after 21 days
# [5] = Example 1, 6.25 mg/ml local via pump, 10 microliter/hr over 7 days, sacrifice after 21 days
# [6] = Example 1, 62.5 mg/ml local via pump, 10 microliter/hr over 7 days, sacrifice after 21 days
# [7] = Example 3, oral 60 mg/kg 5 days pre-operatively and 6.25 mg/ml topically (pump, 7 days), 60 mg/kg
# [8] = Example 3, oral 60 mg/kg, 5 days pre-operatively and 21 days post-operatively, no pump
# [9] = Example 2, 2 and 3 week local dosing
# [10] = Example 3, oral and/or local dosing
structure (smiles),measurement,setting,value
"COc1ccc(C=CC(=O)Nc2ccccc2C(=O)O)cc1OC [Tranilast, N-(3,4-dimethoxycinnamoyl) anthranilic acid]",mean adhesion area percentage,"[1]; Example 1, 0.625 mg/ml local, 1 week dosing, p=0.078",82.9±8.1%
same,mean adhesion area percentage,"[1]; Example 1, 6.25 mg/ml local, 1 week dosing, p<0.001",67.1±7.1%
same,mean adhesion area percentage,"[1]; Example 1, 62.5 mg/ml local, 1 week dosing, p=0.065",78.6±9.6%
same,tenacity of the adhesions formed (analysis of variance on the ranks),"[1]; Example 1, 1 week local dosing, all doses",significant reductions in the tenacity of the adhesions
same,area of adhesion formation relative to the control,"[1]; Example 1, 1 week local dosing, all doses (0.625, 6.25, 62.5 mg/ml)",reduced the area of adhesion formation
same,Adhesion Area Percentage,[1]; [4],100% (4×) and 60% (3×)
same,Adhesion Tenacity,[1]; [4],2 (3×) and 1 (3×) and 3
same,Adhesion Area Percentage,[1]; [5],70% (2×) and 100% and 80% and 50% (3×)
same,Adhesion Tenacity,[1]; [5],1 (5×) and 2 (2×)
same,Adhesion Area Percentage,[1]; [6],100% (3×) and 70% (2×) and 30% and 80%
same,Adhesion Tenacity,[1]; [6],2 (3×) and 1 (3×) and 3
same,mean adhesion area percentage,"[1]; Example 2, 0.625 mg/ml local, 2 weeks",75.1±14.5%
same,mean adhesion area percentage,"[1]; Example 2, 0.625 mg/ml local, 3 weeks",48.6±8.8%
same,mean adhesion area percentage,"[1]; Example 2, 6.25 mg/ml local, 2 weeks",78.8±12.0%
same,mean adhesion area percentage,"[1]; Example 2, 6.25 mg/ml local, 3 weeks",77.1±12.1%
same,mean adhesion area percentage,"[1]; Example 2, 62.5 mg/ml local, 2 weeks",72.5±9.8%
same,mean adhesion area percentage,"[1]; Example 2, 62.5 mg/ml local, 3 weeks",64.3±10.9%
same,tenacity of the adhesions formed (analysis of variance on the ranks),"[1]; Example 2, 2 and 3 week local dosing, all doses",significant reductions in the tenacity of the adhesions
same,adhesion formation relative to placebo control,"[1]; Example 2, 2 and 3 week local dosing, significant at the high dose at two weeks and at all doses at 3 weeks",reductions in adhesion formation at all doses of drug and at both time points
same,Adhesion Area Percentage,"[1]; Example 2, 0.625 mg/ml local via pump for 2 weeks (pump replaced at day 7), sacrifice after 21 days",50% and 100% (4×) and 80% and 0%
same,Adhesion Tenacity,"[1]; Example 2, 0.625 mg/ml local via pump for 2 weeks, sacrifice after 21 days",1 (5×) and 0 and 2
same,Adhesion Area Percentage,"[1]; Example 2, 0.625 mg/ml local via pump for 3 weeks (pump replaced at days 7 and 14), sacrifice after 21 days",10% and 50% (3×) and 80% and 30% and 70%
same,Adhesion Tenacity,"[1]; Example 2, 0.625 mg/ml local via pump for 3 weeks, sacrifice after 21 days",1 (6×) and 2
same,Adhesion Area Percentage,"[1]; Example 2, 6.25 mg/ml local via pump for 2 weeks (pump replaced at day 7), sacrifice after 21 days",100% (4×) and 70% and 0% and 80% (2×)
same,Adhesion Tenacity,"[1]; Example 2, 6.25 mg/ml local via pump for 2 weeks, sacrifice after 21 days",1 (6×) and 0 and 2
same,Adhesion Area Percentage,"[1]; Example 2, 6.25 mg/ml local via pump for 3 weeks (pump replaced at days 7 and 14), sacrifice after 21 days",70% and 100% (4×) and 20% and 50%
same,Adhesion Tenacity,"[1]; Example 2, 6.25 mg/ml local via pump for 3 weeks, sacrifice after 21 days",1 (5×) and 2 (2×)
same,Adhesion Area Percentage,"[1]; Example 2, 62.5 mg/ml local via pump for 2 weeks (pump replaced at day 7), sacrifice after 21 days",40% and 80% and 100% (3×) and 30% and 60% and 70%
same,Adhesion Tenacity,"[1]; Example 2, 62.5 mg/ml local via pump for 2 weeks, sacrifice after 21 days",1 (6×) and 2 (2×)
same,Adhesion Area Percentage,"[1]; Example 2, 62.5 mg/ml local via pump for 3 weeks (pump replaced at days 7 and 14), sacrifice after 21 days",50% (2×) and 40% and 30% and 100% (2×) and 80%
same,Adhesion Tenacity,"[1]; Example 2, 62.5 mg/ml local via pump for 3 weeks, sacrifice after 21 days",1 (6×) and 2
same,mean adhesion area percentage,"[1]; Example 3, 6.25 mg/ml local only, p=0.039",72.9±11.7%
same,tenacity of the adhesions formed (analysis of variance on the ranks),"[1]; Example 3, all groups of animals that received the drug",significant reductions in the tenacity of the adhesions
same,area of adhesion formation,"[1]; Example 3, all groups that received local delivery (Tables 13 and 16)",reductions in the area of adhesion formation
same,Adhesion Tenacity,"[1]; Example 3, 6.25 mg/ml local via pump over 7 days, no oral dosing",1
same,Adhesion Area Percentage,"[1]; Example 3, 6.25 mg/ml local via pump, 10 microliter/hour over 7 days, no oral dosing",100% (2×) and 60% and 80% (3×) and 10%
same,Adhesion Area Percentage,[1]; [7],80% (2×) and 0% and 50% and 60% and 10%
same,Adhesion Tenacity,[1]; [7],1 (5×) and 0
same,Adhesion Area Percentage,"[1]; Example 3, oral 60 mg/kg 5 days pre-operatively and placebo topically (pump)",100%
same,Adhesion Tenacity,"[1]; Example 3, oral 60 mg/kg 5 days pre-operatively and placebo topically (pump), 60 mg/kg",2 (4×) and 1 (2×)
same,Adhesion Area Percentage,[1]; [8],100%
same,Adhesion Tenacity,[1]; [8],2
same,area of adhesion formation / inhibition of adhesion formation,"[1]; Example 3, oral dosing alone, pre-operatively or pre- and post-operatively (Tables 14 and 15)",did not reduce the area of adhesion formation; also recorded: no inhibition of adhesion formation
same,mean adhesion area percentage,"[1]; Example 3, oral pre-operative and post-operative, no local",100±0%
same,mean adhesion area percentage,"[1]; Example 3, oral pre-operative with topical 6.25 mg/ml, p=0.002",46.7±14.1%
same,mean adhesion area percentage,"[1]; Example 3, oral pre-operative with topical placebo",100±0%
same,inhibition of adhesion formation,"[1]; Example 3, pre-operative oral administration in conjunction with local administration",did result in inhibition of adhesion formation
same,efficacy in reducing post-operative adhesions,[1]; delivered to the site via a local administrative route,efficacious
same,efficacy in reducing post-operative adhesions,[1]; delivered via a systemic route,no efficacy was seen
same,clinical signs at necropsy,"[2]; Example 1, 1 week local dosing",no clinical signs
same,inflammation or granulomas at the site of administration,"[2]; Example 1, 1 week local dosing",no inflammation or granulomas were observed
same,clinical signs at necropsy,[2]; [9],no clinical signs
same,inflammation or granulomas at the site of administration,[2]; [9],no inflammation or granulomas were observed grossly at the site of administration in the majority of animals
same,mild inflammation with granulomas (mark at adhesion tenacity),"[2]; Example 2, 0.625 mg/ml local for 2 weeks",*
same,mild inflammation with granulomas (mark at adhesion tenacity),"[2]; Example 2, 6.25 mg/ml local for 2 weeks",*
same,mild inflammation with granulomas (mark at adhesion tenacity),"[2]; Example 2, 6.25 mg/ml local for 3 weeks",*
same,mild inflammation with granulomas (mark at adhesion tenacity),"[2]; Example 2, 62.5 mg/ml local for 2 weeks",*
same,mild inflammation with granulomas (mark at adhesion tenacity),"[2]; Example 2, 62.5 mg/ml local for 3 weeks",*
same,clinical signs at necropsy,[2]; [10],no clinical signs
same,inflammation or granulomas at the site of administration,[2]; [10],no inflammation or granulomas were observed
same,IC50 values in cellular assays,[3],does not exhibit potent IC50 values
